In ChEMBL document CHEMBL3804791, “Comparison of small molecules and oligonucleotides that target a toxic, non-coding RNA” (Bioorg Med Chem Lett, 2016) one finds IC50 and Activity data, which are given here for six compounds.

Activity calls are given as the source filed them. The calls are words filed in the database; no cut-off is given here.

A short description of series [1]: Binding affinity to 5-biotin-r(CCUG)12 RNA (unknown origin) assessed as inhibition of r(CCUG)12/His6-tagged MBNL1 complex formation preincubated for 15 mins followed by addition of His6-tagged MBNL1 by TR-FRET assay. Background: In TR-FRET formats the signal depends on donor and acceptor labels being close together.
A short description of series [2]: Binding affinity to 5-biotin-r(CCUG)12 RNA (unknown origin) assessed as disruption of 5-biotin-r(CCUG)12/His6-tagged MBNL1 complex incubated for 15 mins by TR-FRET assay.
Series [3] can be described thus: Binding affinity to r(CCUG)300 RNA (unknown origin) in mouse C2C12 cells transfected with BIN1 assessed as rescue of BIN1 splicing defect after 72 hrs by PCR analysis. Format: cell-based.
Series [4] concerns C2C12. Nature of the series: Effect on BIN1 splicing patterns in mouse C2C12 cells at 0.1 to 10 uM by RT-qPCR method. Format: ADME, cell-based. As to conditions: c2c12, 10 µM.
Series [5] has as its system C2C12. Put plainly: Binding affinity to r(CCUG)300 RNA (unknown origin) in mouse C2C12 cells transfected with BIN1 splicing mini gene assessed as rescue of BIN1 splicing defect at 100 nM after 72 hrs by PCR analysis. Format: cell-based.
Series [6] concerns C2C12. Put plainly: Binding affinity to r(CCUG)300 RNA (unknown origin) in mouse C2C12 cells transfected with BIN1 assessed as rescue of BIN1 splicing defect at 10 uM after 72 hrs by PCR analysis. Format: cell-based.
Series [7] concerns C2C12. Put plainly: Effect on r(CCUG)300 levels in mouse C2C12 cells at 10 uM by RT-qPCR method. The format is functional, cell-based. (In general: Real-time PCR tracks product formation cycle by cycle.)
For series [8], the system named is C2C12. Put plainly: Effect on BIN1 splicing patterns in mouse C2C12 cells at 1 to 20 uM by RT-qPCR method. Format: ADME, cell-based. As to conditions: c2c12, 20 µM.

As to `Nc1ccn([C@@H]2C[C@@H](OP(=O)(O)OC[C@H]3O[C@@H](n4cnc5c(N)ncnc54)C[C@@H]3OP(=O)(O)OC[C@H]3O[C@@H](n4cnc5c(=O)[nH]c(N)nc54)C[C@@H]3OP(=O)(O)OC[C@H]3O[C@@H](n4cnc5c(=O)[nH]c(N)nc54)C[C@@H]3OP(=O)(O)OC[C@@H]3O[C@H](n4ccc(N)nc4=O)C[C@H]3OP(=O)(O)OC[C@@H]3O[C@H](n4cnc5c(N)ncnc54)C[C@H]3OP(=O)(O)OC[C@@H]3O[C@H](n4cnc5c(=O)[nH]c(N)nc54)C[C@H]3OP(=O)(O)OC[C@H]3O[C@@H](n4cnc5c(=O)[nH]c(N)nc54)C[C@@H]3O)[C@H](COP(=O)(O)O)O2)c(=O)n1`, the values for the IC50 in series [1] and in series [2] were 700 nM and 830 nM, respectively.
Take `C#CNC(=O)CC(=O)NC[C@H]1O[C@H](O[C@@H]2[C@@H](O)[C@H](O[C@@H]3O[C@@H](CN=[N+]=[N-])[C@H](O)[C@@H](N)[C@@H]3O)[C@@H](N)C[C@H]2N)[C@H](O)[C@@H](O)[C@@H]1O` (stereo in doubt): the 50% inhibitory concentration (IC50) in series [3] amounted to 80 nM. Moreover, the figures for the Activity result in series [4] and in series [5] were “Non-toxic” and 50%, respectively.
Regarding `Nc1ccn([C@@H]2C[C@@H](OP(=O)(O)OC[C@H]3O[C@@H](n4cnc5c(N)ncnc54)C[C@@H]3OP(=O)(O)OC[C@H]3O[C@@H](n4cnc5c(=O)[nH]c(N)nc54)C[C@@H]3OP(=O)(O)OC[C@@H]3O[C@H](n4cnc5c(=O)[nH]c(N)nc54)C[C@H]3OP(=O)(O)OC[C@@H]3O[C@H](n4ccc(N)nc4=O)C[C@H]3OP(=O)(O)OC[C@H]3O[C@@H](n4cnc5c(N)ncnc54)C[C@@H]3OP(=O)(O)OC[C@H]3O[C@@H](n4cnc5c(=O)[nH]c(N)nc54)C[C@@H]3OP(=O)(O)OC[C@H]3O[C@@H](n4cnc5c(=O)[nH]c(N)nc54)C[C@@H]3O)[C@H](COP(=O)(O)O[C@H]3C[C@H](n4cnc5c(=O)[nH]c(N)nc54)O[C@@H]3COP(=O)(O)O[C@@H]3C[C@@H](n4cnc5c(=O)[nH]c(N)nc54)O[C@H]3COP(=O)(O)O[C@@H]3C[C@@H](n4cnc5c(N)ncnc54)O[C@H]3COP(=O)(O)O[C@H]3C[C@H](n4ccc(N)nc4=O)O[C@@H]3COP(=O)(O)O)O2)c(=O)n1`, the half-maximal inhibitory concentration (IC50) amounted to 300 nM in series [1] and 470 nM in series [2].
Turning to `CCCN(CC(=O)N(CCC)CC(=O)N(CCC)CC(=O)N(CCC)CC(=O)N(CCCn1cc(CCCC(=O)NC[C@H]2O[C@H](O[C@@H]3[C@@H](O)[C@H](O[C@@H]4O[C@@H](CO)[C@H](O)[C@@H](N)[C@@H]4O)[C@@H](N)C[C@H]3N)[C@H](O)[C@@H](O)[C@@H]2O)nn1)CC(N)=O)C(=O)CNCCCn1cc(CCCC(=O)NC[C@@H]2O[C@@H](O[C@@H]3[C@@H](O)[C@H](O[C@@H]4O[C@@H](CO)[C@H](O)[C@@H](N)[C@@H]4O)[C@@H](N)C[C@H]3N)[C@@H](O)[C@H](O)[C@H]2O)nn1`, the Activity entry in series [4] is “Non-toxic”; in series [6], 60%. The result in series [7] was inactive.
As for `C#CCCCC(=O)NC[C@@H]1O[C@@H](O[C@H]2[C@H](O)[C@@H](O[C@@H]3O[C@@H](CO)[C@H](O)[C@@H](N)[C@@H]3O)[C@H](N)C[C@@H]2N)[C@@H](O)[C@H](O)[C@H]1O`, the Activity entry in series [8] is “Non-toxic”; in series [6] it was 15%. The result in series [7] was inactive.
On to `C#CCCCC(=O)NC[C@H]1O[C@H](O[C@H]2[C@H](O)[C@@H](O[C@H]3O[C@H](CN=[N+]=[N-])[C@@H](O)[C@H](N)[C@H]3O)[C@H](N)C[C@@H]2N)[C@H](O)[C@@H](O)[C@@H]1O`, for which the outcome in series [7] was inactive.

A word on the IC50: it is the point on the concentration scale where inhibition reaches its midpoint.
